Patent publication US10597388B2, “Pyridazinone herbicides” (FMC CORPORATION, priority 2014, dated 2020)

What was measured:
Assay in all cases: Test D controlled growth environment herbicide test, pre- and postemergence
Assay type in all cases: in vivo
[1] = test system: Russian thistle (Salsola kali)
Outline: (§1)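 Rating is visual, 0–100 scale (100 = complete control), made against untreated plants 14–21 d after treatment in controlled growth conditions. Postemergence sprays went onto 1- to 4-leaf plants in peat medium; preemergence sprays onto silt loam after sowing; formulation included a surfactant.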

[2] = test system: blackgrass (Alopecurus myosuroides)
Outline: as §1

[3] = test system: chickweed (common chickweed, Stellaria media)
Outline: as §1

[4] = test system: deadnettle (henbit deadnettle, Lamium amplexicaule)
Outline: as §1

[5] = test system: field poppy (Papaver rhoeas)
Outline: as §1

[6] = test system: field violet (Viola arvensis)
Outline: as §1

[7] = test system: oilseed rape (Brassica napus)
Outline: as §1

[8] = test system: pigweed (Amaranthus retroflexus)
Outline: as §1

[9] = test system: radish, wild (wild radish, Raphanus raphanistrum)
Outline: as §1

[10] = test system: ryegrass, Italian (Italian ryegrass, Lolium multiflorum)
Outline: as §1

[11] = test system: wheat, spring (spring wheat, Triticum aestivum)
Outline: as §1

[12] = test system: wheat, winter (winter wheat, Triticum aestivum)
Outline: as §1

[13] = test system: windgrass (Apera spica-venti)
Outline: as §1

[14] = Postemergence, 31 g ai/ha, scale 0 to 100 (0 no effect, 100 complete control)
[15] = Postemergence, 125 g ai/ha, visual rating on scale 0 (no effect) to 100 (complete control), 14 to 21 d
[16] = Postemergence, 250 g ai/ha, scale 0 to 100 (0 no effect, 100 complete control)
[17] = Preemergence, 62 g ai/ha, scale 0 to 100 (0 no effect, 100 complete control)
[18] = Preemergence, 125 g ai/ha, scale 0 to 100 (0 no effect, 100 complete control)
[19] = Preemergence, 250 g ai/ha, scale 0 to 100 (0 no effect, 100 complete control)
[20] = postemergence, 62 g ai/ha, scale 0 to 100, 0 no effect, 100 complete control

COc1nn(C)c(=O)c(-c2c(C)ccc3ccccc23)c1O [Compound 54]
Russian Thistle plant response rating [1, 14]: 80
Plant response rating, Russian Thistle [1, 15]: 90
Plant response rating, Russian Thistle [1, 16]: 100
Plant response rating (scale of 0 to 100), Russian Thistle ([1]; Preemergence, 31 g ai/ha): 0
Plant response rating, Russian Thistle [1, 17]: 0
Plant response rating, Russian Thistle [1, 18]: 25
Plant response rating, Russian Thistle [1, 19]: 35
Plant response rating, Russian Thistle [1, 20]: 80
Blackgrass plant response rating [2, 14]: 25
Plant response rating, Blackgrass [2, 15]: 70
Plant response rating, Blackgrass [2, 16]: 75
Plant response rating (scale of 0 to 100), Blackgrass ([2]; Preemergence, 31 g ai/ha): 15
Plant response rating, Blackgrass [2, 17]: 30
Plant response rating, Blackgrass [2, 18]: 50
Plant response rating, Blackgrass [2, 19]: 75
Plant response rating, Blackgrass [2, 20]: 40
Chickweed plant response rating [3, 14]: 100
Plant response rating, Chickweed [3, 15]: 100
Plant response rating, Chickweed [3, 16]: 100
Plant response rating (scale of 0 to 100), Chickweed ([3]; Preemergence, 31 g ai/ha): 85
Plant response rating, Chickweed [3, 17]: 90
Plant response rating, Chickweed [3, 18]: 95
Plant response rating, Chickweed [3, 19]: 100
Plant response rating, Chickweed [3, 20]: 100
Deadnettle plant response rating [4, 14]: 100
Plant response rating, Deadnettle [4, 15]: 100
Plant response rating, Deadnettle [4, 16]: 100
Plant response rating (scale of 0 to 100), Deadnettle ([4]; Preemergence, 31 g ai/ha): 0
Plant response rating, Deadnettle [4, 17]: 60
Plant response rating, Deadnettle [4, 18]: 70
Plant response rating, Deadnettle [4, 19]: 95
Plant response rating, Deadnettle [4, 20]: 100
Field Poppy plant response rating [5, 14]: 70
Plant response rating, Field Poppy [5, 15]: 100
Plant response rating, Field Poppy [5, 16]: 100
Plant response rating (scale of 0 to 100), Field Poppy ([5]; Preemergence, 31 g ai/ha): 90
Plant response rating, Field Poppy [5, 17]: 55
Plant response rating, Field Poppy [5, 18]: 100
Plant response rating, Field Poppy [5, 19]: 100
Plant response rating, Field Poppy [5, 20]: 100
Field Violet plant response rating [6, 14]: 85
Plant response rating, Field Violet [6, 15]: 95
Plant response rating, Field Violet [6, 16]: 90
Plant response rating (scale of 0 to 100), Field Violet ([6]; Preemergence, 31 g ai/ha): 25
Plant response rating, Field Violet [6, 17]: 35
Plant response rating, Field Violet [6, 18]: 70
Plant response rating, Field Violet [6, 19]: 95
Plant response rating, Field Violet [6, 20]: 75
Oilseed Rape plant response rating [7, 14]: 75
Plant response rating, Oilseed Rape [7, 15]: 100
Plant response rating, Oilseed Rape [7, 16]: 100
Plant response rating (scale of 0 to 100), Oilseed Rape ([7]; Preemergence, 31 g ai/ha): 15
Plant response rating, Oilseed Rape [7, 17]: 50
Plant response rating, Oilseed Rape [7, 18]: 85
Plant response rating, Oilseed Rape [7, 19]: 100
Plant response rating, Oilseed Rape [7, 20]: 95
Pigweed plant response rating [8, 14]: 100
Plant response rating, Pigweed [8, 15]: 100
Plant response rating, Pigweed [8, 16]: 100
Plant response rating (scale of 0 to 100), Pigweed ([8]; Preemergence, 31 g ai/ha): 80
Plant response rating, Pigweed [8, 17]: 100
Plant response rating, Pigweed [8, 18]: 100
Plant response rating, Pigweed [8, 19]: 100
Plant response rating, Pigweed [8, 20]: 100
Radish, Wild plant response rating [9, 14]: 80
Plant response rating, Radish, Wild [9, 15]: 100
Plant response rating, Radish, Wild [9, 16]: 100
Plant response rating (scale of 0 to 100), Radish, Wild ([9]; Preemergence, 31 g ai/ha): 25
Plant response rating, Radish, Wild [9, 17]: 100
Plant response rating, Radish, Wild [9, 18]: 100
Plant response rating, Radish, Wild [9, 19]: 100
Plant response rating, Radish, Wild [9, 20]: 100
Ryegrass, Italian plant response rating [10, 14]: 80
Plant response rating, Ryegrass, Italian [10, 15]: 90
Plant response rating, Ryegrass, Italian [10, 16]: 95
Plant response rating (scale of 0 to 100), Ryegrass, Italian ([10]; Preemergence, 31 g ai/ha): 35
Plant response rating, Ryegrass, Italian [10, 17]: 90
Plant response rating, Ryegrass, Italian [10, 18]: 100
Plant response rating, Ryegrass, Italian [10, 19]: 100
Plant response rating, Ryegrass, Italian [10, 20]: 85
Wheat, Spring plant response rating [11, 14]: 0
Plant response rating, Wheat, Spring [11, 15]: 15
Plant response rating, Wheat, Spring [11, 16]: 25
Plant response rating (scale of 0 to 100), Wheat, Spring ([11]; Preemergence, 31 g ai/ha): 0
Plant response rating, Wheat, Spring [11, 17]: 0
Plant response rating, Wheat, Spring [11, 18]: 0
Plant response rating, Wheat, Spring [11, 19]: 45
Plant response rating, Wheat, Spring [11, 20]: 0
Wheat, Winter plant response rating [12, 14]: 0
Plant response rating, Wheat, Winter [12, 15]: 25
Plant response rating, Wheat, Winter [12, 16]: 30
Plant response rating (scale of 0 to 100), Wheat, Winter ([12]; Preemergence, 31 g ai/ha): 0
Plant response rating, Wheat, Winter [12, 17]: 0
Plant response rating, Wheat, Winter [12, 18]: 15
Plant response rating, Wheat, Winter [12, 19]: 35
Plant response rating, Wheat, Winter [12, 20]: 5
Windgrass plant response rating [13, 14]: 35
Plant response rating, Windgrass [13, 15]: 70
Plant response rating, Windgrass [13, 16]: 75
Plant response rating (scale of 0 to 100), Windgrass ([13]; Preemergence, 31 g ai/ha): 0
Plant response rating, Windgrass [13, 17]: 50
Plant response rating, Windgrass [13, 18]: 70
Plant response rating, Windgrass [13, 19]: 95
Plant response rating, Windgrass [13, 20]: 45
